# Values of other authors as cited in patent publication US20040076646A1, “Haptenizing cancer cell components” (priority 2001, published 2004).
# Test system: individuals / adult Americans
substance,measurement,setting,value
urushiol,amount of urushiol sufficient to induce the rash response,"some individuals, molecular traces",≤ 2 µg
same,proportion of adult Americans who respond,≦50 μg of purified material,80-90%
